According to ChEMBL document CHEMBL1201862, “PubChem BioAssay data set” (2004):
Calls of active or inactive are those of the source.

How the values were obtained:
[1] = biological target: SWI/SNF-related matrix-associated actin-dependent regulator of chromatin subfamily A member 2 (Homo sapiens, UniProt P51531); experiment: Luminescence-based cell-based high throughput dose response assay to identify activators of the function of SWI/SNF related, matrix associated, actin dependent regulator of chromatin, subfamily a, member 2 (SMARCA2, BRM).; format: functional
[2] = Counterscreen for activators of the function of SWI/SNF related, matrix associated, actin dependent regulator of chromatin, subfamily a, member 2 (SMARCA2, BRM): Luminescence-based cell-based high throughput dose response assay to identify non-selective compounds using the VP16 reporter assay.; format: functional
[3] = blockers of HIV-1 envelope-mediated cell-cell fusion – cherry-pick, dose response (AID 652057); format: functional, cell-based
INS1 = experiment: INS-1E survival protection against cytokine death – cell-based, luminescence, retest, dose response (AID 449756); format: functional; conditions: Rattus norvegicus;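 further: cell death triggered by IL-1 beta plus TNF-alpha plus IFN-gamma mixture; protective hits raise ATP signal compared with cytokine alone wells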
[4] = off-target signal loss in HeLa-CEM21 co-culture – HeLa F-luc CTL cells, cherry-picked, counter-screen for HIV-1 Env fusion inhibitor project, dose response (AID 652040); format: functional, cell-based;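 further: potency for signal decrease marking cytotoxic or nonspecific inhibition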
[5] = viability loss in CEM21 cells – cell-based, CellTiter-Glo luminescence, cherry-picked, cytotoxicity control for viral fusion inhibitor project, dose response (AID 652042); format: functional;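 further: potency for signal decrease meaning cytotoxicity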
[6] = blockers of HIV-1 ZM109 envelope-driven cell-cell fusion – HeLa effector, CEM target cells, luciferase, cherry-pick, dose response (AID 652058); format: functional, cell-based;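 further: luciferase signal from HIV-1 Env mediated cell-cell fusion of effector and target cells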
[7] = HIV-1 AD8 envelope cell-cell fusion blockers – cherry-pick, dose response (AID 652062); format: functional, cell-based;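 further: luciferase signal from cell-cell fusion driven by HIV-1 clade B AD8 Env; potency is for inhibitors of fusion seen as a drop in luminescence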
Vero [8] = experiment: viability of Vero cells under compound – cytotoxicity control for flavivirus capping enzyme inhibitors (AID 588742); format: functional; conditions: Chlorocebus sabaeus
[9] = biological target: T1, Histone-lysine N-methyltransferase NSD2 (Homo sapiens, UniProt O96028); format: biochemical
T1 sequence (O96028 whole entry): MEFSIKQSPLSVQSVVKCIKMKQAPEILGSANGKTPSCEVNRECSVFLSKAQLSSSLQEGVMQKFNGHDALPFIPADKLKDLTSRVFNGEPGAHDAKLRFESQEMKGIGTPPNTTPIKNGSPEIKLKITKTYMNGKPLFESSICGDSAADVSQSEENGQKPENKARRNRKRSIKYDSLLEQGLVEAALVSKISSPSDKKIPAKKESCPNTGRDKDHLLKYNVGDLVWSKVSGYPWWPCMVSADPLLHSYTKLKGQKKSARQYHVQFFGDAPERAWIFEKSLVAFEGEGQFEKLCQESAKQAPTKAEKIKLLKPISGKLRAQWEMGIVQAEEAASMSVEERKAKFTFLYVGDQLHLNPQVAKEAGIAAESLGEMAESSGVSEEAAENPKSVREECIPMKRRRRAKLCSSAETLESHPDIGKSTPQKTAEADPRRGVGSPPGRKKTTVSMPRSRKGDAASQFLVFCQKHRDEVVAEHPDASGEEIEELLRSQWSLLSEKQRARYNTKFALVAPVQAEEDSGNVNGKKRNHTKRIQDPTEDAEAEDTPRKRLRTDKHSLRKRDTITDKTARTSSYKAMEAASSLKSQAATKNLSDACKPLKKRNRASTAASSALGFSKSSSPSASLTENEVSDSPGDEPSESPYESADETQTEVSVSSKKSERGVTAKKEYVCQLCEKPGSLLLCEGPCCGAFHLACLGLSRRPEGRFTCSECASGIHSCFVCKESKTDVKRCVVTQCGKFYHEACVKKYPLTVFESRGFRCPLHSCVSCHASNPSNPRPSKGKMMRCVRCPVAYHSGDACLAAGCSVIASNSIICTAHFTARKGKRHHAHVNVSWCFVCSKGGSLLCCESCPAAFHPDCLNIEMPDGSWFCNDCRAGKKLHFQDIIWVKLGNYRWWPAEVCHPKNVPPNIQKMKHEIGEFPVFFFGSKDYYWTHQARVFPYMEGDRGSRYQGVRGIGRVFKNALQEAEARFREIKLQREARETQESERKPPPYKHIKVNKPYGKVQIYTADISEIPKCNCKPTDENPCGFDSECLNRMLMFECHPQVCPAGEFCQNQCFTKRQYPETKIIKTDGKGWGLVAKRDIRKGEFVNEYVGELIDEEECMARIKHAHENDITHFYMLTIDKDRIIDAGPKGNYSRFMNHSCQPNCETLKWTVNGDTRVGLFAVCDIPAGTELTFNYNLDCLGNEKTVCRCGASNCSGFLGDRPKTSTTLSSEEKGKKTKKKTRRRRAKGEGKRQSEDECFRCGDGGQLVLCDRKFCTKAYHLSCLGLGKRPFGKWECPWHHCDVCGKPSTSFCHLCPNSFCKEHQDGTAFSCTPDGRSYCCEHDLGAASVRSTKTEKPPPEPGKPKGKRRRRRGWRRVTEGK

[10] = biological target: Induced myeloid leukemia cell differentiation protein Mcl-1 (Homo sapiens, UniProt Q07820); format: functional
[11] = biological target: 5-hydroxytryptamine receptor 2A (Mus musculus, UniProt P35363); format: functional, cell-based;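 further: CHO-K1 cells with tagged receptor and beta-arrestin; agonist potency measured as compound-induced activation of the receptor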
[12] = biological target: Eukaryotic translation initiation factor 4E (Mus musculus, UniProt P63073); experiment: blockers of eIF4G binding by eIF4E – biochemical, TR-FRET, dose response (AID 855); format: functional;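 further: potency for disrupting eIF4E binding to eIF4GI seen as loss of FRET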
Mu-type opioid receptor = Mu-type opioid receptor (Homo sapiens, UniProt P35372); format: functional, cell-based;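 further: U2OS cells with beta-arrestin recruitment to OPRM1 by beta-gal complementation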
[13] = biological target: T2, Mannose-6-phosphate isomerase (Homo sapiens, UniProt P34949); experiment: MPI inhibition at elevated mannose 6-phosphate – biochemical, fluorescence intensity, high mannose 6-phosphate, primary screen (AID 1220)
T2 sequence (P34949 whole entry): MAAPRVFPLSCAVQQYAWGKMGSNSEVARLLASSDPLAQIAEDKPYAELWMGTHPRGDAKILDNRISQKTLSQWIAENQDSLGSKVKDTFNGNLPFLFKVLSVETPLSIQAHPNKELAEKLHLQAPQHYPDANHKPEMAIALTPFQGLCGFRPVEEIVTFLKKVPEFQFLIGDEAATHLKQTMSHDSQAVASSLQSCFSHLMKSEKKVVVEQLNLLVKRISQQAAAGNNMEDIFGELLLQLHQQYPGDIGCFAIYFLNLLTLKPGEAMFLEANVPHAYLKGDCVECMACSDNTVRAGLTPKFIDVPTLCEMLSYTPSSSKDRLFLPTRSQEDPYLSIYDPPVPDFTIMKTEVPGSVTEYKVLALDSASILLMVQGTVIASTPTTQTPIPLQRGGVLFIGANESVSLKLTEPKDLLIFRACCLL

Genome polyprotein = Genome polyprotein (dengue virus type 2, UniProt P29990); experiment: flavivirus cap methylation enzyme inhibition – biochemical, confirmation dose response, primary screen (AID 588689); format: functional
[14] = T. cruzi growth inhibition in host cells, dose response, cell-based, plate reader, dry powder, set 2 (AID 652275); format: functional
[15] = general mammalian cell viability loss – inhibitor set, cherry-pick, set 2, cytotoxicity control for miR-122 modulator project, dose response (AID 720697); format: functional, cell-based
Fatty acid synthase [16] = biological target: T3, Fatty acid synthase (Homo sapiens, UniProt P49327); experiment: inhibition of human FAS-TE enzyme activity – biochemical, endpoint fluorescence intensity, uHTS hits, dose response (AID 624327); format: functional;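 further: fluorescence from hydrolysis of an O-methyl fluorescein acyl ester substrate by the enzyme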
Albumin = Albumin (Bos taurus, UniProt P02769); experiment: Counterscreen for inhibitors of T-cell receptor (TCR)-CD3 interaction: Fluorescence-based biochemical high throughput dose response assay to identify inhibitors of T-cell receptor (TCR)-CD3 interaction using a TAMRA-labeled BSA probe.; format: functional
Fatty acid synthase [17] = biological target: T3, Fatty acid synthase; experiment: inhibition of human FAS-TE enzyme activity – biochemical, kinetic fluorescence intensity, dose response (AID 624326); format: functional;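 further: rate of fluorescence rise from hydrolysis of a fluorogenic O-methyl fluorescein ester substrate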
Vero [18] = experiment: cells; format: functional; conditions: Chlorocebus sabaeus

T3 sequence (P49327 whole entry): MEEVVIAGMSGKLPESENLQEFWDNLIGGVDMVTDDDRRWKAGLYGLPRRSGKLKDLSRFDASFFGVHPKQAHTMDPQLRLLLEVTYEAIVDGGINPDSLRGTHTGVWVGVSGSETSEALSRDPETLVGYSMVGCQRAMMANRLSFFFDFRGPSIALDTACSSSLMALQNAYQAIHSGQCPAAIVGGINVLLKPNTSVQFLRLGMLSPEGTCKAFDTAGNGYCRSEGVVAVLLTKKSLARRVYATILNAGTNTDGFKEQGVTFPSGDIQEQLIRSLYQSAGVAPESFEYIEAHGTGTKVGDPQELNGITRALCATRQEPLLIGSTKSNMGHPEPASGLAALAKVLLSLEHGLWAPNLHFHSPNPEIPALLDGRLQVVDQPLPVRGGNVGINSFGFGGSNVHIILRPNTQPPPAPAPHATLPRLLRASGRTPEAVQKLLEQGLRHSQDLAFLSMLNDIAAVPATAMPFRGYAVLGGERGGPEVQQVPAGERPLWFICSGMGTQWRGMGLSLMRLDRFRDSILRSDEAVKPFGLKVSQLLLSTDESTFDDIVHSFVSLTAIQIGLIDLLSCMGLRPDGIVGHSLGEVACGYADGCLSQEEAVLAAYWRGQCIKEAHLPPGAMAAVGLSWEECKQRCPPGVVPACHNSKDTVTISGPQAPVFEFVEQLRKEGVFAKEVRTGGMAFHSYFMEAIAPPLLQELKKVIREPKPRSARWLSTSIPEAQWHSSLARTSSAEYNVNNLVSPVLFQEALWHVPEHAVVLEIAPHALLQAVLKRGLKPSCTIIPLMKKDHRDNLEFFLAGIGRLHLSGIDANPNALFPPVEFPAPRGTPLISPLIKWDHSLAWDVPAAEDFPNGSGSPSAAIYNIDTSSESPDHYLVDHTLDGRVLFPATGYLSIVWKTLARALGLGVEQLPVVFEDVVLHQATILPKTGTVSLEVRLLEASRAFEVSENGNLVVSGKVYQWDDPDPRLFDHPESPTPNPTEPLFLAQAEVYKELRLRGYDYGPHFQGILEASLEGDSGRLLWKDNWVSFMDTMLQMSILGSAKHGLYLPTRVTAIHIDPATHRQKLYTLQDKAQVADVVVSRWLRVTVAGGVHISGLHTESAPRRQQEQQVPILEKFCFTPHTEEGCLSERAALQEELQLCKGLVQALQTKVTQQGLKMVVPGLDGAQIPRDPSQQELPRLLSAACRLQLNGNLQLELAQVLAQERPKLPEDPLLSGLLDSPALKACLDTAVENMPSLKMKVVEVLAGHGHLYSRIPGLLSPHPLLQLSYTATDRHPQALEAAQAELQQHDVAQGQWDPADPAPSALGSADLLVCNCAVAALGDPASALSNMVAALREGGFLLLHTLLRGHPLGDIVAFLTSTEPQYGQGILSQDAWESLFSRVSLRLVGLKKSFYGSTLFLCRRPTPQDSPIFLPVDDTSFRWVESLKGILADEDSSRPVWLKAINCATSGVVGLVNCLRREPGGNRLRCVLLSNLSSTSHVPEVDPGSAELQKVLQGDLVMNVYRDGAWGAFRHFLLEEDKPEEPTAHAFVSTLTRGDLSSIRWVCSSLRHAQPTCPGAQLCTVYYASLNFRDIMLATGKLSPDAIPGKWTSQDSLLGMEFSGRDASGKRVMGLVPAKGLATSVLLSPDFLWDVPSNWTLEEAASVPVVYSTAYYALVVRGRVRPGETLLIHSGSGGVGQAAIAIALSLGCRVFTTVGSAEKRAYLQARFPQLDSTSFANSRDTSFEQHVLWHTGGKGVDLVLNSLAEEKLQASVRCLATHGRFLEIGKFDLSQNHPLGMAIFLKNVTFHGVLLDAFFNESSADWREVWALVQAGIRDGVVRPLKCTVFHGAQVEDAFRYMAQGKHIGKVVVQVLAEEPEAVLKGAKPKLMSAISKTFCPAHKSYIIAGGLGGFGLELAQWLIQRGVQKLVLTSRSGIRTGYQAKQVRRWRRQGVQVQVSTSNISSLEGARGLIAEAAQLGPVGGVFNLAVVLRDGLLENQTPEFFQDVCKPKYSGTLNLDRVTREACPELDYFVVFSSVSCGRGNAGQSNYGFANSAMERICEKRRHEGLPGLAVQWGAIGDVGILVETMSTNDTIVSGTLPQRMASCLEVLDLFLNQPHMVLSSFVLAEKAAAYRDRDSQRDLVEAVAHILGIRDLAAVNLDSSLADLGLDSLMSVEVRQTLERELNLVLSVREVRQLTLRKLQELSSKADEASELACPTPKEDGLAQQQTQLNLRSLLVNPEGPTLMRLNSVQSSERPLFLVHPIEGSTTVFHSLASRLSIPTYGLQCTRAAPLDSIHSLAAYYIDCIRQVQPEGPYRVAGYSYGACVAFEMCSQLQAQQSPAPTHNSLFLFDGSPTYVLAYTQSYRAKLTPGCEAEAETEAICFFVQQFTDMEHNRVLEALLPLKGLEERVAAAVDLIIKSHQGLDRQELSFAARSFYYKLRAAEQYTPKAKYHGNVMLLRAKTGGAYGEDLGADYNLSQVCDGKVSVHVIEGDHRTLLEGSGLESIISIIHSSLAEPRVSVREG
Sequence of SWI/SNF-related matrix-associated actin-dependent regulator of chromatin subfamily A member 2 (P51531 whole entry): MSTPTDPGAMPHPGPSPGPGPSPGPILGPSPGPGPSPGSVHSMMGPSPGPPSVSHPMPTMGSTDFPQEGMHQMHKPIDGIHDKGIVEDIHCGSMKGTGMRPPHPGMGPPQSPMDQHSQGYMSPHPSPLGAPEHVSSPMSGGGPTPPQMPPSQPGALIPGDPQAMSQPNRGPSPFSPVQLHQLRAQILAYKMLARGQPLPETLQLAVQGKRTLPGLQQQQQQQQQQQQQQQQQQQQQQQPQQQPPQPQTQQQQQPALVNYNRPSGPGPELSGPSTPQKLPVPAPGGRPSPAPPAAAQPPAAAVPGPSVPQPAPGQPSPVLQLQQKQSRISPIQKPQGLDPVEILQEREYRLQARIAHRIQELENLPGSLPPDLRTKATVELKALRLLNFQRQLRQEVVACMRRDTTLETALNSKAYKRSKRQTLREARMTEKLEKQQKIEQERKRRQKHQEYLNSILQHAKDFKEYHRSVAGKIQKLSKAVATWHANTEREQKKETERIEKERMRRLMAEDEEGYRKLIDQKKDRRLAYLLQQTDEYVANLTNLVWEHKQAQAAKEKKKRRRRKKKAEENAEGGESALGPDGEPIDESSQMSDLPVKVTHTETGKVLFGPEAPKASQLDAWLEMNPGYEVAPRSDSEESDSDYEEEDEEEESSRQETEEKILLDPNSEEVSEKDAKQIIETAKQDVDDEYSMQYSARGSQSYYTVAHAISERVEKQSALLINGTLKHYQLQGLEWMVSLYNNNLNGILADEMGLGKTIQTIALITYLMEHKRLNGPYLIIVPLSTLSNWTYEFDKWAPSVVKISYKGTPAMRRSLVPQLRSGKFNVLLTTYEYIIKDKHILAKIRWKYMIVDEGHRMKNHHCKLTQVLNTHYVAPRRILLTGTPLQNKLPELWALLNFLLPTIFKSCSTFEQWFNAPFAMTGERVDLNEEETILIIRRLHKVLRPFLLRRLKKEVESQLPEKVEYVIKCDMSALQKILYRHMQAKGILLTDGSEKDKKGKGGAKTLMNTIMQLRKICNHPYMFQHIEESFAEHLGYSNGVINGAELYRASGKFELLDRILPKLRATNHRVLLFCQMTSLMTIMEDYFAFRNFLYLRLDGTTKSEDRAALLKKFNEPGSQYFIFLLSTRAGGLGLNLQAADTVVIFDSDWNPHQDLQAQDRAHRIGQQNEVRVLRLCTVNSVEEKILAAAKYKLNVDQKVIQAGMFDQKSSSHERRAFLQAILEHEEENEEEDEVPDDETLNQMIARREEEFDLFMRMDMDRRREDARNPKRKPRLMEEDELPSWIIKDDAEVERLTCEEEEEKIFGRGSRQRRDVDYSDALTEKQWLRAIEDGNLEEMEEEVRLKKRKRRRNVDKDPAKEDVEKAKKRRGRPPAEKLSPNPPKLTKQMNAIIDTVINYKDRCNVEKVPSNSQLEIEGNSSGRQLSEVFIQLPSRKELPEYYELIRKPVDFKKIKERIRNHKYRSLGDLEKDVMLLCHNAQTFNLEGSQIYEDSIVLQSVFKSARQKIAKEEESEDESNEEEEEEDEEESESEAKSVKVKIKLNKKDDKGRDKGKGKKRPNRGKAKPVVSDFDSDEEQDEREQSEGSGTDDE
Sequence of Genome polyprotein (P29990 2492-3391 limits assumed): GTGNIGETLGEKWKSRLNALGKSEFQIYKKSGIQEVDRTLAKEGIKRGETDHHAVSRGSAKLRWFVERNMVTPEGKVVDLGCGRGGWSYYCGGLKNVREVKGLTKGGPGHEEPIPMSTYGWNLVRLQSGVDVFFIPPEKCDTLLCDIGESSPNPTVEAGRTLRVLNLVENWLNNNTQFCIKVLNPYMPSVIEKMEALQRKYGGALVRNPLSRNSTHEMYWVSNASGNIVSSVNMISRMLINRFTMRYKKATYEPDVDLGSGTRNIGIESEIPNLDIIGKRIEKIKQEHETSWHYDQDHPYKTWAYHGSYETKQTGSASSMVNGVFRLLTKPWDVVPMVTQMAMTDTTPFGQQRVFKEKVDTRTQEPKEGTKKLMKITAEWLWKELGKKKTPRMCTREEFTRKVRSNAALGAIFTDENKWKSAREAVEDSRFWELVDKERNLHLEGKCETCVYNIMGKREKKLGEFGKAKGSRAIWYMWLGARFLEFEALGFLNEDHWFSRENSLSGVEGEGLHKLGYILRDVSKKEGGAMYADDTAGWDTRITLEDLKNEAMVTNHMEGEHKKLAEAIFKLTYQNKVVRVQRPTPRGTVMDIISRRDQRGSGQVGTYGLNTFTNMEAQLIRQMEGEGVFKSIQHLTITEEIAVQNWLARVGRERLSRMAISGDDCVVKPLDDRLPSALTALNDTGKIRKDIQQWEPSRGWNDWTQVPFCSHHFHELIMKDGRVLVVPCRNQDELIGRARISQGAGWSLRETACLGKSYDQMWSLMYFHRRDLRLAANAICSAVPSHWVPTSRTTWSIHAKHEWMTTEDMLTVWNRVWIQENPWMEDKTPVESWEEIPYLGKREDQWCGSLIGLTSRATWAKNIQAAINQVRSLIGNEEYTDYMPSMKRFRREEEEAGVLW

In the case of `O=C(/C=C/c1ccc(-c2ccccc2)o1)c1ccccc1`, the EC50 [1] is reported as > 91.2 µM (inactive) and the EC50 [2] is reported as > 91.2 µM (inactive).
With `S=C(NCCCN1CCOCC1)N1CCN(c2nc(-c3ccc(Cl)cc3)cs2)CC1` the AC50 [3] was 31 µM (active), the AC50 (INS1) was 11.2 µM (active) and the AC50 [4] was 25.9 µM (active). For the same compound, the AC50 [5] was 19.9 µM (active), the AC50 [6] was 0.888 µM (active) and the AC50 [7] was 7.13 µM (active).
With `COCC/N=c1\scc(-c2ccco2)n1/N=C/c1ccc(O)c(O)c1O` the CC50 (Vero [8]) was 38.6 µM (active), the AC50 [9] was 1.16 µM (active) and the IC50 [10] was 1.6 µM (active). The EC50 [11] was 11.6 µM (inactive), the IC50 [12] was 36 µM (inactive) and the EC50 (Mu-type opioid receptor) was 92.5 µM (inactive). The IC50 [13] was 32 µM (active) and the IC50 (Genome polyprotein) was > 100 µM (active).
In the case of `C[C@H]1CN([C@@H](C)CO)C(=O)c2cccc(NC(=O)c3ccncc3)c2O[C@@H]1CN(C)Cc1ccccc1C(F)(F)F`, the AC50 [14] is reported as 0.0342 µM (active).
For `C[C@@H]1CN([C@@H](C)CO)S(=O)(=O)c2ccc(/C=C/c3ccccc3)cc2O[C@@H]1CN(C)C(=O)NC1CCCCC1`, the AC50 [15] was 0.533 µM (active).
With `O=C(N/N=C/c1cc([N+](=O)[O-])cc([N+](=O)[O-])c1O)/C(=C\c1cccs1)NC(=O)c1ccccc1` the IC50 (Fatty acid synthase [16]) was 6.3 µM (active), the IC50 (Albumin) was > 94.1 µM (inactive) and the IC50 (Fatty acid synthase [17]) was 4.89 µM (active).
In the case of `O=C(/C=C/c1ccc(O)cc1)c1ccc(O)cc1O` [ISOLIQUIRITIGENIN], the CC50 (Vero [18]) is reported as > 25 µM (active), the EC50 [1] is reported as > 91.1 µM (inactive) and the EC50 [2] is reported as > 91.1 µM (inactive).
